Measurements: PubChem BioAssay (NCI)
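Briefly, cells in 96-well plates were exposed to five compound concentrations for 48 h, and endpoints were estimated by linear interpolation. TGI marks complete inhibition of growth.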

Legend:
Assay in all cases: NCI anticancer screen, dose series, 48 h
[1] = tested on: CCRF-CEM leukemia
[2] = tested on: NCI-H226 lung
[3] = tested on: SF-295 CNS
[4] = tested on: M14 melanoma
[5] = tested on: SR leukemia
[6] = tested on: SN12C renal
[7] = tested on: UACC-62 melanoma
[8] = tested on: HOP-18 NSCLC
[9] = tested on: OVCAR-8 ovarian
[10] = tested on: MALME-3M melanoma
[11] = tested on: HT29 colon
[12] = tested on: UO-31 renal
[13] = tested on: OVCAR-3 ovarian
[14] = tested on: HCT-15 colon
[15] = tested on: SF-539 CNS
[16] = tested on: SK-MEL-2 melanoma
[17] = tested on: HOP-92 NSCLC
[18] = tested on: DMS 114 small cell lung
[19] = tested on: MOLT-4 leukemia
[20] = tested on: HOP-62 NSCLC
[21] = tested on: UACC-257 melanoma
[22] = tested on: IGROV1 ovarian
[23] = tested on: OVCAR-4 ovarian
[24] = tested on: ACHN renal
[25] = tested on: SNB-75 CNS
[26] = tested on: HL-60(TB) leukemia
[27] = tested on: A498 renal
[28] = tested on: HCT-116 colon
[29] = tested on: OVCAR-5 ovarian
[30] = tested on: COLO 205 colon
[31] = tested on: NCI-H23 lung
[32] = tested on: KM20L2 colon
[33] = tested on: SK-OV-3 ovarian
[34] = tested on: A549 NSCLC
[35] = tested on: U251 CNS
[36] = tested on: TK-10 renal
[37] = tested on: SK-MEL-28 melanoma
[38] = tested on: RPMI-8226 leukemia
[39] = tested on: KM12 colon
[40] = tested on: 786-0 renal
[41] = tested on: CAKI-1 renal
[42] = tested on: SNB-78 CNS
[43] = tested on: M19-MEL melanoma
[44] = tested on: DLD-1 colon
[45] = tested on: LXFL 529 NSCLC
[46] = tested on: NCI-H460 lung
[47] = tested on: LOX IMVI melanoma
[48] = tested on: K-562 leukemia
[49] = tested on: NCI-H522 lung
[50] = tested on: SW-620 colon
[51] = tested on: SK-MEL-5 melanoma
[52] = tested on: SNB-19 CNS
[53] = tested on: SF-268 CNS

CN(C)CCNc1ccc2ncn3c4ccccc4c(=O)c1c23
TGI [1]: > 100 µM
TGI [2]: 6.05 µM
TGI [3]: 13.4 µM
TGI [4]: 13.7 µM
TGI [5]: > 100 µM
TGI [6]: 38.4 µM
TGI [7]: 12.3 µM
TGI [8]: 33 µM
TGI [9]: 10.7 µM
TGI [10]: 10.2 µM
TGI [11]: 10.6 µM
TGI [12]: 17.5 µM
TGI [13]: > 100 µM
TGI [14]: 13.9 µM
TGI [15]: 16.9 µM
TGI [16]: 10.1 µM
TGI [17]: 9.51 µM
TGI [18]: 13.7 µM
TGI [19]: > 100 µM
TGI [20]: 19.4 µM
TGI [21]: 11.5 µM
TGI [22]: 11.9 µM
TGI [23]: 5 µM
TGI [24]: 10.5 µM
TGI [25]: 16 µM
TGI [26]: > 100 µM
TGI [27]: 21.1 µM
TGI [28]: 12 µM
TGI [29]: 5.35 µM
TGI [30]: 4.03 µM
TGI [31]: 14.5 µM
TGI [32]: 13.6 µM
TGI [33]: 16.2 µM
TGI [34]: 5.79 µM
TGI [35]: 15.8 µM
TGI [36]: 46.7 µM
TGI [37]: 15.2 µM
TGI [38]: > 100 µM
TGI [39]: 13.3 µM
TGI [40]: 13.9 µM
TGI [41]: 12.9 µM
TGI [42]: 19.8 µM
TGI [43]: 12.6 µM
TGI [44]: 12.8 µM
TGI [45]: 19.2 µM
TGI [46]: 6.86 µM
TGI [47]: 2.92 µM
TGI [48]: > 100 µM
TGI [49]: 5.41 µM
TGI [50]: 12.9 µM
TGI [51]: 11.5 µM
TGI [52]: 47.5 µM
TGI [53]: 20.2 µM
